What was measured:
human CB1 receptor [1] = molecular target: T1, human CB1 receptor (Homo sapiens, UniProt P21554); assay: bioSensAll GAPL-Gi2 BRET biosensor assay in HEK293 cells transfected with hCB1; test compound added before EC75-80 of agonist CP55,940 (0.1 nM); format: cell-based; conditions: vs CP55,940 0.1 nM (EC75-80), read-out: CB1 wt Gi2 IC50
T1 construct: expressed in transfected cells; host or cells: HEK293
Procedure: (§1) Using polyethylenimine (PEI) transfection agent, HEK293 cells were transfected in suspension with the human CB1 receptor and one of the following bioSensAll® assays: GAPL-Gi2, or β-arrestin plasma membrane (PM) translocation biosensor (+GRK2). Cells were directly seeded in 96-well plates immediately following transfection.
(§2) Cells were incubated with coelenterazine (luciferase substrate) and different test compounds prior to the measurement of BRET signals.
(§3) Used in this project are i) Gα plasma membrane (GAPL) biosensors and the ii) β-arrestin plasma membrane translocation biosensor.
i) GAPL sensors are used to monitor the activation of heterotrimeric G proteins at the plasma membrane upon receptor stimulation. Specifically, these multimolecular BRET sensors detect the plasma membrane recruitment of proteins that interact with active Gα subunits in a G protein family-selective manner. G protein activation following receptor stimulation generally leads to an increase in the BRET signal.
(§4) HEK293 cells were maintained in Dulbecco's Modified Eagle Medium (DMEM) (Wisent; cat #319-030-CL: without sodium pyruvate, with 4.5 g/L glucose, without L-glutamine) supplemented with 1% penicillin-streptomycin (Wisent; cat #450-201-EL) and 2 or 10% fetal bovine serum (Wisent cat #090150).
(§5) HEK293 cells were co-transfected with hCB1 and one of the above-listed bioSensAll® assays. For each transfection condition: • the total amount of transfected DNA was kept constant at 1 μg per mL of cell culture to be transfected; whenever necessary, salmon sperm DNA (Invitrogen, cat #15632011) was used as ‘carrier’ DNA to supplement plasmid DNA (i.e., biosensor and receptor); • the PEI (polyethylenimine 25 kDa linear, PolyScience, cat #23966) to DNA ratio (ug:ug) was fixed at 3:1.
(§6) Transfections were carried out as follows: • DNA and PEI were first diluted separately in 150 mM NaCl. The volume of the diluent in each tube corresponds to 5% of the cell culture volume to be transfected. • Once DNA and PEI were diluted, the PEI-containing solution was added to the DNA solution and the DNA/PEI mixture immediately vortexed for 5 seconds. • The DNA/PEI mixture was incubated for at least 20 minutes at room temperature to allow for the formation of DNA/PEI complexes. • During the incubation, HEK293 cells were detached, counted and re-suspended in culture medium (composition specified above). • At the end of the incubation period, the DNA/PEI mixture was added to the cells. • Cells were finally distributed in 96-well plates (White Opaque 96-well/Microplates, Greiner, cat #655083 or CulturPlate-96, White Opaque 96-well Microplate, PerkinElmer, cat #6005688) at a density of 30,000 cells per well.
(§7) At 48 hours post-transfection: • Using 450-Select TS Biotek plate washer, culture medium was aspirated and replaced with 100 μL of Hank's Balanced Salt Solution buffer (HBSS) (Wisent, cat #319-067CL: without red phenol; with sodium bicarbonate, with calcium and magnesium, with HEPES) per well. • Plates were then incubated (equilibrated) at 37° C., 5% CO2 for 60 minutes. • Increasing doses of test compounds were then added to each well using the HP D300e digital dispenser (Tecan). All compounds were assayed at the following 12 concentrations (in nM) with each biosensor: 0.000, 0.013, 0.040, 0.120, 0.320, 0.960, 2.80, 8.00, 24.0, 70.0, 205 and 600. • Three to 5 minutes later, an assay-specific effective concentration (EC)75-80 of agonist CP55,940 (i.e., 0.1 nM and 100 nM for G[…]i2-GAPL or […]Arrestin2 (+GRK2) assay, respectively) was added to wells previously injected with test compound (i.e., previous step 3). […]

human CB1 receptor [2] = molecular target: T1, human CB1 receptor; assay: bioSensAll β-arrestin2 plasma membrane translocation (+GRK2) BRET biosensor assay in HEK293 cells transfected with hCB1; test compound added before EC75-80 of agonist CP55,940 (100 nM); format: cell-based; conditions: βArrestin2 (+GRK2) BRET biosensor, vs CP55,940 100 nM (EC75-80), read-out: CB1 wt βarr2 IC50
Procedure: as §1, §2, §3
ii) The multimolecular β-arrestin membrane recruitment biosensors allow for real-time spatio-temporal monitoring of β-arrestin 1 and β-arrestin 2 following GPCR activation. Specifically, these β-arrestin sensors were designed to detect the recruitment of proteins to the plasma membrane (β-arrestin PM) with localization to compartment resulting in an increased BRET signal.
as §4, §5, §6, §7

T1 sequence (P21554 whole entry): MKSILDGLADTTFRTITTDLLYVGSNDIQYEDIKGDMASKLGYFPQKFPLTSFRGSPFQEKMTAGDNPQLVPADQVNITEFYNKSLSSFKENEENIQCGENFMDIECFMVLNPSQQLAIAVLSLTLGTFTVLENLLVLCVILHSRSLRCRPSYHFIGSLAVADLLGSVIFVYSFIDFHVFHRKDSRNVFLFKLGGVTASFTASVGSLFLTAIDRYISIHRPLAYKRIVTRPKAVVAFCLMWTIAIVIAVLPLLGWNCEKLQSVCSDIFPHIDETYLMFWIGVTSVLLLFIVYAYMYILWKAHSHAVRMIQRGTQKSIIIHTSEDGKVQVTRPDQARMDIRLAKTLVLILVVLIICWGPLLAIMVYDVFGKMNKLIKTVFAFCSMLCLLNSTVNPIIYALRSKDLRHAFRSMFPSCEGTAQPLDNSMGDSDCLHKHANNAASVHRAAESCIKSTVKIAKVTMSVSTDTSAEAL

| SMILES | IC50 (human CB1 receptor [1]) [nM] | IC50 (human CB1 receptor [2]) [nM] |
| --- | --- | --- |
| FC(F)(F)C1CCN(c2nc(OC3CCCOC3)nc3c2nc(-c2ccccc2Cl)n3-c2ccc(Cl)cc2)CC1 (stereo not drawn) [Compound 33, 8-(2-chlorophenyl)-9-(4-chlorophenyl)-2-tetrahydropyran-3-yloxy-6-[4-(trifluoromethyl)-1-piperidyl]purine] | 1.42 | 4.98 |
| CC1(C(N)=O)CCN(c2nc(N3CCC[C@H]3CO)nc3c2nc(-c2cccc(C#N)c2)n3-c2ccc(Cl)cc2)CC1 [Compound 37, 1-[9-(4-chlorophenyl)-8-(3-cyanophenyl)-2-[(2S)-2-(hydroxymethyl)pyrrolidin-1-yl]purin-6-yl]-4-methyl-piperidine-4-carboxamide] | 7.39 | 60.5 |
| FC(F)(F)C1CCN(c2nc(-c3cc[nH]n3)nc3c2nc(-c2ccccc2Cl)n3-c2ccc(Cl)cc2)CC1 [Compound 39] | 3.29 | 16.4 |
| CN(CC(C)(C)O)c1nc(N2CCC(C)(C(N)=O)CC2)c2nc(-c3ccccc3Cl)n(-c3ccc(Cl)cc3)c2n1 [Compound 40, 1-[8-(2-chlorophenyl)-9-(4-chlorophenyl)-2-[(2-hydroxy-2-methyl-propyl)-methyl-amino]purin-6-yl]-4-methyl-piperidine-4-carboxamide] | 0.971 | 15.3 |
| CN(CC1(O)CC1)c1nc(N2CCC(C)(C(N)=O)CC2)c2nc(-c3ccccc3Cl)n(-c3ccc(Cl)cc3)c2n1 [Compound 41, 1-[8-(2-chlorophenyl)-9-(4-chlorophenyl)-2-[(1-hydroxycyclopropyl)methyl-methyl-amino]purin-6-yl]-4-methyl-piperidine-4-carboxamide] | 1.65 | 7.33 |
| CC1(C(N)=O)CCN(c2nc(-c3cc[nH]n3)nc3c2nc(-c2ccccc2Cl)n3-c2ccc(Cl)cc2)CC1 [Compound 44] | 2.1 | 10 |
| CC1(C(N)=O)CCN(c2nc(-c3cnc[nH]3)nc3c2nc(-c2ccccc2Cl)n3-c2ccc(Cl)cc2)CC1 [Compound 45] | 5.85 | 39.9 |
| CN(CCO)c1nc(N2CCC(C)(C(N)=O)CC2)c2nc(-c3ccccc3)n(-c3ccc(Cl)cc3)c2n1 [Compound 48, 1-[9-(4-chlorophenyl)-2-[2-hydroxyethyl(methyl)amino]-8-phenyl-purin-6-yl]-4-methyl-piperidine-4-carboxamide] | 1.2 | 5.91 |
| CN(CCO)c1nc(N2CCC(C)(C(N)=O)CC2)c2nc(-c3ccncc3)n(-c3ccc(Cl)cc3)c2n1 [Compound 52, 1-[9-(4-chlorophenyl)-2-[2-hydroxyethyl(methyl)amino]-8-(4-pyridyl)purin-6-yl]-4-methyl-piperidine-4-carboxamide] | 2.06 | 29.1 |
| CC(=O)NCCOc1nc(N2CCC(C(F)(F)F)CC2)c2nc(-c3ccccc3Cl)n(-c3ccc(Cl)cc3)c2n1 [Compound 53, N-[2-[8-(2-chlorophenyl)-9-(4-chlorophenyl)-6-[4-(trifluoromethyl)-1-piperidyl]purin-2-yl]oxyethyl]acetamide] | 0.966 | 13.1 |

Further compounds by falling IC50 (human CB1 receptor [1]), results first:

| IC50 (human CB1 receptor [1]) [nM] | IC50 (human CB1 receptor [2]) [nM] | SMILES |
| --- | --- | --- |
| 10.1 | 64.3 | Cc1cccnc1-c1nc2c(N3CCC(C)(C(N)=O)CC3)nc(N(C)CCO)nc2n1-c1ccc(Cl)cc1 [Compound 51, 1-[9-(4-chlorophenyl)-2-[2-hydroxyethyl(methyl)amino]-8-(3-methyl-2-pyridyl)purin-6-yl]-4-methyl-piperidine-4-carboxamide] |
| 8.41 | 47.8 | CN(CCO)c1nc(N2CCC(C)(C(N)=O)CC2)c2nc(-c3ncccc3F)n(-c3ccc(Cl)cc3)c2n1 [Compound 50, 1-[9-(4-chlorophenyl)-8-(3-fluoro-2-pyridyl)-2-[2-hydroxyethyl(methyl)amino]purin-6-yl]-4-methyl-piperidine-4-carboxamide] |
| 6.62 | 17.6 | CC(=O)NC(=N)Nc1nc(N2CCC(C(F)(F)F)CC2)c2nc(-c3ccccc3Cl)n(-c3ccc(Cl)cc3)c2n1 [Compound 34, N—[N-[8-(2-chlorophenyl)-9-(4-chlorophenyl)-6-[4-(trifluoromethyl)-1-piperidyl]purin-2-yl]carbamimidoyl]acetamide] |
| 2.6 | 19.3 | CN(CCO)c1nc(N2CCC(C)(C(N)=O)CC2)c2nc(-c3ncccc3Cl)n(-c3ccc(Cl)cc3)c2n1 [Compound 49, 1-[9-(4-chlorophenyl)-8-(3-chloro-2-pyridyl)-2-[2-hydroxyethyl(methyl)amino]purin-6-yl]-4-methyl-piperidine-4-carboxamide] |
| 1.87 | 6.65 | CC1(C(N)=O)CCN(c2nc(-n3cnc(CCO)c3)nc3c2nc(-c2ccccc2Cl)n3-c2ccc(Cl)cc2)CC1 [Compound 47, 1-[8-(2-chlorophenyl)-9-(4-chlorophenyl)-2-[4-(2-hydroxyethyl)imidazol-1-yl]purin-6-yl]-4-methyl-piperidine-4-carboxamide] |
| 1.82 | 9.64 | CC1(C(N)=O)CCN(c2nc(-n3cnc(CO)c3)nc3c2nc(-c2ccccc2Cl)n3-c2ccc(Cl)cc2)CC1 [Compound 46, 1-[8-(2-chlorophenyl)-9-(4-chlorophenyl)-2-[4-(hydroxymethyl)imidazol-1-yl]purin-6-yl]-4-methyl-piperidine-4-carboxamide] |
| 1.67 | 6.48 | CN(CC(C)(C)O)c1nc(N2CCC(C(F)(F)F)CC2)c2nc(-c3ccccc3Cl)n(-c3ccc(Cl)cc3)c2n1 [Compound 38, 1-[[8-(2-chlorophenyl)-9-(4-chlorophenyl)-6-[4-(trifluoromethyl)-1-piperidyl]purin-2-yl]-methyl-amino]-2-methyl-propan-2-ol] |
| 1.37 | 5.27 | CC1(C(N)=O)CCN(c2nc(-n3ccnc3CO)nc3c2nc(-c2ccccc2Cl)n3-c2ccc(Cl)cc2)CC1 [Compound 43, 1-[8-(2-chlorophenyl)-9-(4-chlorophenyl)-2-[2-(hydroxymethyl)imidazol-1-yl]purin-6-yl]-4-methyl-piperidine-4-carboxamide] |
| 0.695 | 2.39 | COCCN(C)c1nc(N2CCC(C)(C(N)=O)CC2)c2nc(-c3ccccc3Cl)n(-c3ccc(Cl)cc3)c2n1 [Compound 42, 1-[8-(2-chlorophenyl)-9-(4-chlorophenyl)-2-[2-methoxyethyl(methyl)amino]purin-6-yl]-4-methyl-piperidine-4-carboxamide] |
| 0.687 | 3.3 | OC[C@@H]1CCCN1c1nc(N2CCC(C(F)(F)F)CC2)c2nc(-c3ccccc3Cl)n(-c3ccc(Cl)cc3)c2n1 [Compound 35, [(2S)-1-[8-(2-chlorophenyl)-9-(4-chlorophenyl)-6-[4-(trifluoromethyl)-1-piperidyl]purin-2-yl]pyrrolidin-2-yl]methanol] |
| 0.686 | 1.52 | CC1(C(N)=O)CCN(c2nc(N3CCC[C@H]3CO)nc3c2nc(-c2ccc(C#N)cc2)n3-c2ccc(Cl)cc2)CC1 [Compound 36, 1-[9-(4-chlorophenyl)-8-(4-cyanophenyl)-2-[(2S)-2-(hydroxymethyl)pyrrolidin-1-yl]purin-6-yl]-4-methyl-piperidine-4-carboxamide] |

Source: patent US20250333418A1, “PURINE COMPOUNDS, COMPOSITIONS COMPRISING THEM AND USES THEREOF” (Novo Nordisk A/S, priority 2022, published 2025)
